According to ChEMBL document CHEMBL1201862, “PubChem BioAssay data set” (2004):
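Five compound concentrations were applied to cells in 96-well plates for 48 hours; endpoints were derived by simple linear interpolation of the resulting dose-response curve. Abbreviation: GI50, concentration required for 50% inhibition of growth.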 Calls of active or inactive are those of the source. Cut-off read from the data, not from the text of the source: active = GI50 up to about 1.1 µM and inactive = higher. Where a SMILES comes first, the peptide text is derived from it. [ ]: non-standard residue; d: D form. The star is where a group is joined. NMeF = CN[C@@H](Cc1ccccc1)C(=O)O; NMeV = CN[C@H](C(=O)O)C(C)C; Boc = CC(C)(C)OC(=O)*; OBn = c1ccc(CO*)cc1

Tests used:
Test in all cases: DTP human tumour cell line panel, 48 h
[1] = test system: LXFL 529
[2] = test system: SNB-78
[3] = test system: KM-20L2
[4] = test system: DMS-273
[5] = test system: DLD-1
[6] = test system: DMS-114
[7] = test system: M19-MEL
[8] = test system: RXF 631
[9] = test system: HOP-18

SMILES | GI50 [1] | GI50 [2] | GI50 [3] | GI50 [4] | GI50 [5] | GI50 [6] | GI50 [7] | GI50 [8] | GI50 [9]
CN(C)C(=S)NC(=S)Nc1ccc2ccccc2c1 | 2.07 µM (inactive) | 23.7 µM (inactive) | 10 µM (inactive) | 1.67 µM (inactive) |  |  |  |  | 
Cc1cc(N(CCC#N)CCC#N)ccc1CC1N=C(c2ccccc2)OC1=O (centres undefined) | > 100 µM (inactive) |  | > 100 µM (inactive) | > 100 µM (inactive) | > 100 µM (inactive) | > 100 µM (inactive) | > 100 µM (inactive) | > 100 µM (inactive) | 
Cc1ccc(C)c2c1C1CCCCC3(OCCCO3)C21O (centres undefined) | > 100 µM (inactive) | > 100 µM (inactive) | > 100 µM (inactive) | > 100 µM (inactive) | > 100 µM (inactive) | 80 µM (inactive) | > 100 µM (inactive) |  | 17.1 µM (inactive)
CCCCCC(=O)OC[n+]1ccc2c(C)c3[nH]c4ccccc4c3c(C)c2c1 | 1.02 µM (active) | 0.995 µM (active) | 0.612 µM (active) | 0.141 µM (active) | 0.45 µM (active) | 1.02 µM (active) | 1.02 µM (active) | 0.408 µM (active) | 
O=C(O)C1=C(C(=O)O)Oc2ccccc2O1 | > 100 µM (inactive) | > 100 µM (inactive) | > 100 µM (inactive) | > 100 µM (inactive) | > 100 µM (inactive) | > 100 µM (inactive) | > 100 µM (inactive) |  | > 100 µM (inactive)
CN(C)C(=O)Oc1c(-c2ccccc2)c(=O)n2c3ccccc3n3c(=O)n(C)c(=O)c1c23 | > 100 µM (inactive) | > 100 µM (inactive) |  | > 100 µM (inactive) | > 100 µM (inactive) | > 100 µM (inactive) | > 100 µM (inactive) | > 100 µM (inactive) | > 100 µM (inactive)
CN(C(=O)c1cccs1)C(=S)N1CCN(c2ccccn2)CC1 | > 100 µM (inactive) | > 100 µM (inactive) | > 100 µM (inactive) | > 100 µM (inactive) | > 100 µM (inactive) | > 100 µM (inactive) | > 100 µM (inactive) |  | > 100 µM (inactive)
CN(CCS(=O)(=O)N1C(=O)C2CCCN2C(=O)[C@@H]1Cc1ccccc1)C(=O)OCc1ccccc1 (some centres undefined) | 45.4 µM (inactive) | 92.7 µM (inactive) | 61.8 µM (inactive) |  | > 100 µM (inactive) | 59.6 µM (inactive) | 62.1 µM (inactive) | 56.2 µM (inactive) | > 100 µM (inactive)
CCOC(=O)C1COc2cc(-c3cc(=O)c4ccccc4o3)ccc2O1 (centres undefined) | 65.2 µM (inactive) | 51.1 µM (inactive) | > 100 µM (inactive) | > 100 µM (inactive) | 36.1 µM (inactive) | 42.6 µM (inactive) | 29.7 µM (inactive) |  | 
O=c1sc(-c2nc3ccccc3[nH]2)c(/N=C/c2ccccc2)n1-c1ccccc1 | 30.3 µM (inactive) | 35.5 µM (inactive) |  | 28.4 µM (inactive) | > 100 µM (inactive) |  | 94.2 µM (inactive) |  | 67 µM (inactive)
N#CCCN(C1=NN(C(=O)CC(=O)Nc2ccc(Cl)cc2)C(c2ccccc2)C1)c1ccc(Cl)cc1 (centres undefined) | > 100 µM (inactive) | 40.4 µM (inactive) | > 100 µM (inactive) | > 100 µM (inactive) | > 100 µM (inactive) | > 100 µM (inactive) | > 100 µM (inactive) | > 100 µM (inactive) | > 100 µM (inactive)
O=C1Cc2nc(CO)c(CO)c(CO)c2CO1 | > 100 µM (inactive) | > 100 µM (inactive) | > 100 µM (inactive) | > 100 µM (inactive) | > 100 µM (inactive) | > 100 µM (inactive) | > 100 µM (inactive) |  | > 100 µM (inactive)
CC(=O)c1ccc(N2C(=O)C3c4[nH]c5ccccc5c4C4CCC(C(C)(C)C)CC4C3C2=O)cc1 (centres undefined) | 29.3 µM (inactive) | 19.6 µM (inactive) | 18.7 µM (inactive) | 17.7 µM (inactive) | 33.2 µM (inactive) | 23.1 µM (inactive) | 19.2 µM (inactive) |  | 91.6 µM (inactive)
C=CCC(N(C)C(=O)[C@H](Cc1ccccc1)NC(=O)OCc1ccccc1)P(=O)(Oc1ccccc1)Oc1ccccc1 (some centres undefined) | 6.79 µM (inactive) | > 100 µM (inactive) | > 100 µM (inactive) | > 100 µM (inactive) | > 100 µM (inactive) | 5.62 µM (inactive) | > 100 µM (inactive) |  | 
O=C1CCCCCCCCCCC(=O)N2CCOCCOCCN1Cc1cccc(n1)C2 | > 100 µM (inactive) | > 100 µM (inactive) | > 100 µM (inactive) | > 100 µM (inactive) | > 100 µM (inactive) | > 100 µM (inactive) | > 100 µM (inactive) | > 100 µM (inactive) | 
COc1ccc(CNc2cnc3ccc(N)cc3n2)cc1OC |  | > 100 µM (inactive) |  | 41.3 µM (inactive) | > 100 µM (inactive) | 47.3 µM (inactive) | 64.3 µM (inactive) |  | 0.548 µM (active)
O=C(/C=C/c1ccco1)N1CCN(Cc2ccccc2)CC1 | > 100 µM (inactive) | > 100 µM (inactive) | > 100 µM (inactive) | > 100 µM (inactive) | > 100 µM (inactive) | > 100 µM (inactive) | > 100 µM (inactive) | > 100 µM (inactive) | > 100 µM (inactive)
O=C(COc1ccc(Br)cc1Br)N1N=C(c2ccc([N+](=O)[O-])o2)CC1(O)c1ccccc1 (centres undefined) | 8.73 µM (inactive) | 27.2 µM (inactive) | 17.9 µM (inactive) | 12.8 µM (inactive) | 10.7 µM (inactive) | 6.11 µM (inactive) |  |  | 8.75 µM (inactive)
Cn1c2c(c3ccccc31)C1CCCCCCC1C1C(=O)OC(=O)C21 (centres undefined) | 39.7 µM (inactive) | > 100 µM (inactive) |  | 20 µM (inactive) | 33.6 µM (inactive) | 29.1 µM (inactive) | 37.4 µM (inactive) | 33.3 µM (inactive) | > 100 µM (inactive)
CN(C)c1ccc(/C=C/c2ccc(/C=C/c3ccc(N(C)C)cc3)cc2)cc1 | 75.9 µM (inactive) | > 100 µM (inactive) | > 100 µM (inactive) | > 100 µM (inactive) | 33.6 µM (inactive) |  | > 100 µM (inactive) | > 100 µM (inactive) | > 100 µM (inactive)
CC(=O)OC(C)(C)[C@@H]1CC[C@]2(C)/C=C/[C@H](C)C[C@@H](O)C3=C(C)C[C@@H](O3)C12 (some centres undefined) | > 100 µM (inactive) | > 100 µM (inactive) | > 100 µM (inactive) | > 100 µM (inactive) | > 100 µM (inactive) | > 100 µM (inactive) | > 100 µM (inactive) | > 100 µM (inactive) | > 100 µM (inactive)
CC(C)[C@@H](C(=O)N1CCC[C@H]1C(=O)OCc1ccccc1)N(C)C(=O)[C@H](C(C)C)N(C)C(=O)[C@H](Cc1ccccc1)N(C)C(=O)[C@H](NC(=O)OC(C)(C)C)C(C)C (Boc-[dV][NMeF][NMeV][NMeV]P-OBn) | 22.2 µM (inactive) |  |  | 24.3 µM (inactive) | 25.4 µM (inactive) | 19.6 µM (inactive) |  |  | > 100 µM (inactive)
